Experimental data: article PMC9116245, “New 1,2,3-triazole linked ciprofloxacin-chalcones induce DNA damage by inhibiting human topoisomerase I& II and tubulin polymerization” (Journal of Enzyme Inhibition and Medicinal Chemistry, 2022)

Assays:
Topo IIα = biological target: T1, Topo IIα (Homo sapiens, UniProt P11388); test: Human Topoisomerase II assay kit (TG1001); assay type: biochemical; conditions: 10 µM
T1 construct: purchased Topogen Inc. TG1001
Description: Second, the inhibitory activity of Topo IIα was evaluated for compounds 4a, 4b, 4e, 4i, and 4j utilising Human Topoisomerase II assay kit (TG1001, Topogen Inc.). […] The above results are compatible with our design of these hybrids as Top-II inhibitors.
The inhibitory activity of the selected ciprofloxacin hybrids on human Top-II was tested using a Human Topoisomerase II assay kit (TG1001, Topogen Inc.). In this assay, 1% agarose gel was used, and the compounds were tested at two different concentrations, 10 and 100 µM. Also, etoposide was used as a positive control in this experiment. The assay was performed according to the manufacturer’s protocol. The image of the electrophoretic gel was captured using an imaging system (iBright-CL1500, Thermo Fisher Scientific).

tubulin polymerisation = test: Tubulin immunofluorescence microscopy in HCT116 cells; assay type: cell-based, human; conditions: HCT116, IC50 of compound, 36 h
Description: (§1) The process of tubulin polymerisation in the cells is important for the completion of mitosis and is targeted for cancer treatment. It has been reported that the suppression of tubulin polymerisation will arrest the cells at the G2/M and it eventually leads to cell death. To test the tubulin-disruptive effect of the CP hybrids, HCT116 cells were analysed by immunocytochemistry. HCT116 cells were incubated for 36 h with IC50 of the CP hybrids (4a, 4b, 4e, 4i, and 4j), nocodazole (a well-known tubulin polymerisation inhibitor, as a positive control), DMSO or Paclitaxel (a well-known tubulin polymerisation inducer, as a negative control), and tubulin was visualised by immunofluorescence microscopy. An antibody for α-tubulin was used. […] Moreover, a Western blot was performed to verify the tubulin polymerisation inhibition ability of the synthesised compounds (Figure 8(B)). The level of polymerised tubulin was decreased in HCT116 cells treated with IC50 values of CP hybrids 4a, 4b, 4e, 4i, 4j, or nocodazole.
(§2) HCT116 cells were cultured and treated with the IC50 of the potent compounds (4a, 4b, 4e, 4i, and 4j) or DMSO (control), fixed, permeabilized, and they were incubated with either γH2AX or α-tubulin antibody as the reported procedure in the literature. Confocal images were captured using a Confocal Microscope with a 63X objective. All images were processed using ImageJ software. See Supplementary Appendix A.

HCT116 cells = test: Analysis of cell cycle distribution; assay type: cell-based, human; conditions: HCT116, different concentrations, 24 h
Source text: Generally, the mammalian cells counteract the DNA damage by different mechanisms including the cell cycle arrest to allow the cell to repair the damage. There are 2 checkpoints that control DNA damage. The first checkpoint is at the G1/S transition while the other checkpoint is at the G2/M transition. To cover the mechanisms of the synthesised compounds in inhibiting cell proliferation, we analysed the distribution of cell cycle of HCT116 cells following the treatment with different doses of 4a, 4b, 4e, 4i, and 4j. […] See Supplementary Appendix A.

γH2AX [1] = test: γH2AX immunofluorescence in HCT116 cells; assay type: cell-based, human; conditions: HCT116, IC50 of compound
Source text: (§3) DNA damage is a major reason for inhibiting proliferation and inducing cytotoxicity in cancer cells as well as the main downstream cascade for the Topo-I, Top-II, and tubulin polymerisation inhibition. The phosphorylation of the histone H2AX always occurs after DNA damage forming double-stranded breaks (DSBs). Therefore, we tested the capability of the potent prepared compounds to trigger DNA double strand breaks through detection of the phosphorylation of γH2AX using two different techniques, Immunofluorescence, and western blotting.
as §2

polymerised tubulin = test: Western blot of polymerised tubulin in HCT116 cells; assay type: cell-based, human; conditions: HCT116, IC50 values of compounds
Description: as §1
(§4) Western blotting analysis for HCT116 cells was performed according to the reported procedure in the literature[77–79] to determine the effects of CP hybrids; 4a, 4b, 4e, 4i, and 4j on the expression of polymerised tubulin, γH2AX, p-ATR, p-CHK1, and p-Cdc25C by using the appropriate antibody. See Supplementary Appendix A.

Human topoisomerase I = biological target: T2, Human topoisomerase I (Homo sapiens, UniProt P11387); test: DNA relaxation assay (gel electrophoresis); assay type: biochemical; conditions: compounds at their IC50 values
T2 construct: purchased Topogen Inc., USA TG-1015
T2 sequence (P11387 1-765): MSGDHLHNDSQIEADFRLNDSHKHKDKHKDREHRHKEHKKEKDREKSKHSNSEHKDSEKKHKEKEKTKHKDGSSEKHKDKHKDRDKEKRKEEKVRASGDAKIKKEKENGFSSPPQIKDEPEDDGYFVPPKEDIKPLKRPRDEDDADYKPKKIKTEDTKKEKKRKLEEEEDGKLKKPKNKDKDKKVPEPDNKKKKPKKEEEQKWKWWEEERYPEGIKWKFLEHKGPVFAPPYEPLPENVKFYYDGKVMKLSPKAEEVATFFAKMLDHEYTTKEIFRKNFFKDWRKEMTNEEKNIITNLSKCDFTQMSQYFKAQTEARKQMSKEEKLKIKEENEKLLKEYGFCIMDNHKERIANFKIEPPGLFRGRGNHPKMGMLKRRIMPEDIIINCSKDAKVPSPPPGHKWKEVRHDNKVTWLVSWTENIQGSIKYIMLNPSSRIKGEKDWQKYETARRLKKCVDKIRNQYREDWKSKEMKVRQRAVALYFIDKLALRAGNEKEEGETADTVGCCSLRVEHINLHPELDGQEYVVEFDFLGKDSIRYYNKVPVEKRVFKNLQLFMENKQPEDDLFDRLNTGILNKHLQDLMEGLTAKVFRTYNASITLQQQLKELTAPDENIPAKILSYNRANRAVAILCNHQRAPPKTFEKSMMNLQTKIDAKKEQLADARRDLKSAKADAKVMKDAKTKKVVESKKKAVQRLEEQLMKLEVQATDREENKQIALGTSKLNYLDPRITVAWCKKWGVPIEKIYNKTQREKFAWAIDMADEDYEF
Description: Based on our design, we hypothesised that the new CP hybrids 4a-j could act as multi-target ligands that can block the catalytic activity of topoisomerases I (Topo-I), topoisomerases (Topo-II), and inhibit tubulin polymerisation as possible targets for the anti-proliferative activity. First, the Topo-I activity was tested by the DNA relaxation assay. The supercoiled plasmid has been utilised as a substrate in the relaxation assay to study the inhibition of DNA Topo-I activity. […] Two different assays were used to examine the inhibitory activity of IC50 of the CP hybrids against Human topoisomerase I. Firstly; Gel electrophoresis-based assay (DNA relaxation assay) was performed following the manufacturer's protocol (TG-1015, Topogen Inc., USA). Secondly, the inhibitory activity of compounds 4a, 4b, 4e, 4i, 4j, and camptothecin to human topoisomerase I was analysed by Human DNA Topoisomerase I Assay Kit (ProFoldin, Hudson, MA, USA) with recombinant human DNA topoisomerase I (Sigma-Aldrich) according to the manufacturer’s protocol.

γH2AX [2] = test: γH2AX western blotting in HCT116 cells; assay type: cell-based, human; conditions: HCT116, IC50 of compound, versus control cells
Source text: as §3, §4

T1 sequence (P11388 whole entry): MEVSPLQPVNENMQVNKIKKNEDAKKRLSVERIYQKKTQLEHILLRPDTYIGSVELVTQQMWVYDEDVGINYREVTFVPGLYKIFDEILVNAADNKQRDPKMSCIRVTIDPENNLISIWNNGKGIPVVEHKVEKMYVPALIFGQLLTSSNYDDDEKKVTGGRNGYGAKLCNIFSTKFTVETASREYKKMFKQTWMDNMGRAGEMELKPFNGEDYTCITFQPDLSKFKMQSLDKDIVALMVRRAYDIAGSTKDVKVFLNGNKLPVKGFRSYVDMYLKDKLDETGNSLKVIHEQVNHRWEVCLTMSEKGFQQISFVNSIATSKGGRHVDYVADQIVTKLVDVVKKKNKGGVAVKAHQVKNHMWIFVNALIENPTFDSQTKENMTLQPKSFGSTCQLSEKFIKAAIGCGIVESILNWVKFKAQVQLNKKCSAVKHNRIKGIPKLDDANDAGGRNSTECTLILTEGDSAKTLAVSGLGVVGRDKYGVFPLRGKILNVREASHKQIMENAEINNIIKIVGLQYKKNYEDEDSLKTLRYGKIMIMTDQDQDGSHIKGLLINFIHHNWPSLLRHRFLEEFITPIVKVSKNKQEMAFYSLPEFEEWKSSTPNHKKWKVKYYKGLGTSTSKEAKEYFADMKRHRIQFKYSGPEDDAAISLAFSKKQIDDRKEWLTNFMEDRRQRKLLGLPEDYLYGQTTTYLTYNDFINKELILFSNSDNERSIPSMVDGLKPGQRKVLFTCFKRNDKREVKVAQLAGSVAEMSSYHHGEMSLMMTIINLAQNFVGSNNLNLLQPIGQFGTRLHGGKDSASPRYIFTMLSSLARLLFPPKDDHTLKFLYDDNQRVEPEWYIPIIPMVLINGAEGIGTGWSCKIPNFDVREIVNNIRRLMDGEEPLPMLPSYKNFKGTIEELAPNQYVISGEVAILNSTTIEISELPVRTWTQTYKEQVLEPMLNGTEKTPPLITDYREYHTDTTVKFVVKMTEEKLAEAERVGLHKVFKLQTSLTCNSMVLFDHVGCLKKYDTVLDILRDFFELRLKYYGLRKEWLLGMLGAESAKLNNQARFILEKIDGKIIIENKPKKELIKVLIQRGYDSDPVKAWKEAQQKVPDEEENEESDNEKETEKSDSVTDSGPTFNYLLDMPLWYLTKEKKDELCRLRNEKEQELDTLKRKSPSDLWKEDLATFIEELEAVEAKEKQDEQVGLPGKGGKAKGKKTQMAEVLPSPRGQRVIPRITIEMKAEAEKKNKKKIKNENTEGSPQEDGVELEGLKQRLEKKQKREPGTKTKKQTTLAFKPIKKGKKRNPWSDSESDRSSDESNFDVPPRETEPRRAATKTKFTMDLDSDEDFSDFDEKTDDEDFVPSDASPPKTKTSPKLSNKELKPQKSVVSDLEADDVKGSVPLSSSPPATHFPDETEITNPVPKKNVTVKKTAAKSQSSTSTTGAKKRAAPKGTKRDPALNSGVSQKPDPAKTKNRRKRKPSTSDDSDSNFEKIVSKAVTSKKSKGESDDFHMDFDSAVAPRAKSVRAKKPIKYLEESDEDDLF

SMILES | Topo-II inhibitory activity (Topo IIα) | tubulin polymerisation, morphological changes by immunofluorescence (tubulin polymerisation) | cell cycle distribution (HCT116 cells) | γH2AX foci formation (γH2AX [1]) | level of polymerised tubulin, Western blot (polymerised tubulin) | Topo-I catalytic activity, DNA relaxation (Human topoisomerase I) | γH2AX protein expression, western blotting (γH2AX [2])
O=C(/C=C/c1ccc(F)cc1)c1ccc(-n2cc(CN3CCN(c4cc5c(cc4F)c(=O)c(C(=O)O)cn5C4CC4)CC3)nn2)cc1 [Compound 4e, (E)-1-cyclopropyl-6-fluoro-7–(4-((1–(4-(3-(4-fluorophenyl)acryloyl)phenyl)-1H-1,2,3-triazol-4-yl)methyl)piperazin-1-yl)-4-oxo-1,4-dihydroquinoline-3-carboxylic acid] | stronger inhibitory activity than 4b, 4i, and ETO | significant tubulin polymerisation inhibition | induced G2/M phase cell cycle arrest in a concentration-dependent manner | induced γH2AX foci formation | decreased | could inhibit Topo-I catalytic activity | increases in the γH2AX protein expression
COc1cc(/C=C/C(=O)c2ccc(-n3cc(CN4CCN(c5cc6c(cc5F)c(=O)c(C(=O)O)cn6C5CC5)CC4)nn3)cc2)cc(OC)c1OC [Compound 4j, (E)-1-cyclopropyl-6-fluoro-4-oxo-7–(4-((1–(4-(3-(3,4,5-trimethoxyphenyl)acryloyl)phenyl)-1H-1,2,3-triazol-4-yl)methyl)piperazin-1-yl)-1,4-dihydroquinoline-3-carboxylic acid] | stronger inhibitory activity than 4b, 4i, and ETO | significant tubulin polymerisation inhibition | induced G2/M phase cell cycle arrest in a concentration-dependent manner | induced γH2AX foci formation | decreased | could inhibit Topo-I catalytic activity | increases in the γH2AX protein expression
